Experimental data: patent US20230192703A1, “Polycyclic amide derivative as CDK9 inhibitor, preparation method therefor and use thereof” (Suzhou AlphaMa Biotechnology Co., Ltd., priority 2020, published 2023)

Tests used:
Mv4-11 cells = assay: Inhibition of the proliferation of Mv4-11 cells (CCK8); format: cell-based; details: Homo sapiens, MV4-11, 48 h, Mv4-11 cell proliferation, CCK8 OD450
Method: The inhibition effect of the compounds of the present disclosure on the proliferation of Mv4-11 cells (ATCC:CRL-9591TM) in vitro was determined by the following method:
Cell inoculation: Mv4-11 cells with good growing state in logarithmic growth phase were inoculated into a 96-well plate at 20000 cells per well and 50 uL, and cultured at 37° C. and under 5% CO2 condition for 2-4 h. Administration: The compound was diluted with 1640 medium containing 10% FBS and 1% PS: 0.4 uL of the compound with an initial concentration of 1 mM was placed in a dilution plate, each added with 199.6 uL of the above culture medium, and gradiently diluted 4-fold, so that the final concentration in the added cell was 1000, 250, 62.5, 15.625, 3.91, 0.98, 0.24, 0.06 nM. 50 μL of the medium containing the compound was sequentially added, and it was placed in a 37° C., 5% CO2 cell incubator for 48 hours.
Detection: 10 uL CCK8 (Dojindo, CK 04) solution was added to each well, incubated in 37° C. 5% CO2 cell incubator for 2 hours, and then the OD450 value was read by Synegry H1 (BioTek) multimode microplate reader.
Calculation: The IC50 value was calculated using Graphpad prism 5.0 software according to the concentration of the compound and the corresponding signal value.

[1] = test system: phosphorylation of RNA pol II Ser2 in Mv4-11 cells; assay: Inhibition of phosphorylation of RNA pol II Ser2 in Mv4-11 cells (SDS-PAGE, FIG. 1); format: cell-based; details: 6 hours, different concentrations
Method: The inhibition effect of the compounds of the present disclosure on the in vitro Mv4-11 cell RNA pol II Ser 2 was determined by the following method:
Cell inoculation: Mv4-11 cells with good growing state in logarithmic growth phase were inoculated into a six-well plate with 2*10^5 cells/well, and cultured overnight at 37° C. and under 5% CO2 condition.
Administration: The compound was diluted with 2 mL of 1640 medium containing 10% FBS and 1% PS. 2 ul of the medium containing the compound was added to the overnight cultured cells, and it was placed in a 37° C., 5% CO2 cell incubator for 6 hours.
Protein extraction and quantification: Cell suspension was collected and centrifuged at 1000 g for 5 min, the cell culturing medium was discarded, and PBS was added for resuspension and centrifugation; it was repeated three times, the residual liquid was sucked dry, 80 uL cell lysate was added per well, it was placed to ice, shaked for 10 min on a shaker, centrifuged at 12000 g for 5 min, and the supernatant, ie, the total protein solution, was collected; the protein concentration was tested by BCA.

CDK9 kinase = target: T1, CDK9 kinase (Homo sapiens, UniProt P50750); assay: Inhibitory effect on the kinase activity of CDK9 in vitro; format: biochemical; details: CDK9 kinase (Millipore), CTD3 substrate polypeptide, Caliper
T1 construct: purchased Millipore 14-685M
Method: The detection of the inhibitory effect of the compounds of the present disclosure on the kinase activity of CDK9 in vitro was determined by the following method:
Compound preparation: The compound was accurately weighed and dissolved in DMSO (Sigma, D2650) to a concentration of 100 um for later use. The compound was diluted to 5-fold of a desired highest concentration, and diluted 4-fold into 6 concentration gradients, allowing the final concentration of the compound in the reaction system to be 100, 25, 6.25, 1.56, 0.39, 0.098 nM. 5 ul was taken to a 384-well plate (Corning, 4512).
Detection: Data was collected by Caliper.
Calculation: The IC50 value was calculated by Graphpad prism 5.0 software according to the concentration of the compound and the corresponding signal value.

T1 sequence (P50750 whole entry): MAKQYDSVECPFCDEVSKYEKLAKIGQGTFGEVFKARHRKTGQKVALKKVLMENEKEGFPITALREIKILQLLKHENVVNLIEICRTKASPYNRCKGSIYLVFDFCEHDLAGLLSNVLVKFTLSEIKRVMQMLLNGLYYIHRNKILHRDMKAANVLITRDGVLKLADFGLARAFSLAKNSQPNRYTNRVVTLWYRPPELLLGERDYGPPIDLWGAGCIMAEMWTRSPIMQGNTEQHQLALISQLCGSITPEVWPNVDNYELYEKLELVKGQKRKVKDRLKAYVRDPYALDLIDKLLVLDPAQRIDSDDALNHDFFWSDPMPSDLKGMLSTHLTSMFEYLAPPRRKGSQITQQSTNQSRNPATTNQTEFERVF
T1 sequence (O60563 whole entry partner): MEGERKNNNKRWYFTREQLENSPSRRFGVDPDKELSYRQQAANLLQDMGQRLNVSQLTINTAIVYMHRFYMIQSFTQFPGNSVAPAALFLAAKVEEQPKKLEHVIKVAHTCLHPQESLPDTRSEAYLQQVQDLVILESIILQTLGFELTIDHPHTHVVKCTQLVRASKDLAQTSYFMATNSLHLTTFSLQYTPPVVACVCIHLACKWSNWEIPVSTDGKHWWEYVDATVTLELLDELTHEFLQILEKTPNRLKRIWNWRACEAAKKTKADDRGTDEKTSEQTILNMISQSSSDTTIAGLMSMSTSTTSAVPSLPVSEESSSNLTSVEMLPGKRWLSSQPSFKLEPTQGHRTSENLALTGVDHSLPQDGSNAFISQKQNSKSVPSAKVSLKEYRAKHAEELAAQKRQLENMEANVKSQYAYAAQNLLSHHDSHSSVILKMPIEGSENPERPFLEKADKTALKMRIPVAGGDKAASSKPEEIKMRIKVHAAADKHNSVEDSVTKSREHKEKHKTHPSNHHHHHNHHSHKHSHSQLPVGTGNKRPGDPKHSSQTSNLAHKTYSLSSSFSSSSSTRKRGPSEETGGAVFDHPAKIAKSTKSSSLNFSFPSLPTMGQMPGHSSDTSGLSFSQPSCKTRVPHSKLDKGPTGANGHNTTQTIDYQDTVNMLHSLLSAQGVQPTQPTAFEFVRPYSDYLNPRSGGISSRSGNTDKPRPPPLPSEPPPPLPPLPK

Row | SMILES | IC50 (Mv4-11 cells) [nM] | inhibitory effect on the phosphorylation of RNA pol II Ser 2 in Mv4-11 cells [1] | IC50 (CDK9 kinase) [nM]
1 | Cn1ccc([C@@H]2CCC[C@H](C(=O)Nc3cc(-c4cnn5c4CC(C)(C)C5)c(Cl)cn3)C2)n1 (single isomer, unassigned) [Compound 22-1-1] | 2.8 | significant inhibitory effect | 3.2
2 | CC(=O)N[C@@H]1CCC[C@H](C(=O)Nc2cc(-c3cc(C(N)=O)n4c3CC(C)(C)C4)ccn2)C1 [Compound 12] | 26 | significant inhibitory effect | 2.9
3 | CC(=O)N1C[C@H]2CC(C(=O)Nc3cc(-c4cc(C#N)n5c4CC(C)(C)C5)c(Cl)cn3)C[C@H]2C1 (single isomer, unassigned) [Compound 7-1] | 17.5 | significant inhibitory effect | 3.2
4 | CC1(C)Cc2c(-c3cc(NC(=O)[C@H]4CCC[C@@H](c5ccncc5)C4)ncc3Cl)cnn2C1 (single isomer, unassigned) [Compound 21-3] | 6.3 |  | 2.8
